Earlier results on 1 molecule are cited in patent US20050226899A1, “Cosmetic mask composition” (priority 2004, published 2005).

In the series the test system is skin. The settings on record: lotion, up to 5% by weight retinoic acid.

For the molecule `CC1=C(/C=C/C(C)=C/C=C/C(C)=C/C(=O)O)C(C)(C)CCC1` [retinoic acid], the irritative phenomena result is “some treatments had to be interrupted due to the onset of significant irritative phenomena”.
